In series [1] the test system is hESC-derived hepatic aggregates. The source says:
To further mature the cells, the role of cAMP signaling was investigated. Studies using hepatic cell lines have shown that activation of this pathway can induce hepatic gene expression, in part through the induction of the peroxisome proliferator-activated receptor gamma coactivator-1-alpha (PGC1-a), a coactivator that functions together with HNF4a to regulate the expression of many genes involved in hepatocyte function 25 28. […] The proportion of ALB positive cells was not reduced in spite of the fact that the levels of mRNA declined (FIG. 5b). Without being bound by theory, these differences could reflect differences in RNA vs. protein expression. Other tissues, such as the pancreas, also express PGC-1a.
(§1) HPSCs were maintained on irradiated mouse embryonic feeder cells in hESC media consisting of DEME/F12 (50:50; Gibco) supplemented with 20% Knock-out serum replacement (KSR) as described previously^44. Prior to the generation of embryoid bodies (EBs), hESCs were passaged onto Matrigel™-coated plates for 1 day to deplete the population of feeder cells. […] At day 1, the EBs were harvested and re-cultured in induction medium A that consisted of StemPRO-34® supplemented with glutamine (2 mM), ascorbic acid ([…]; Sigma), MTG ([…]; Sigma), basic fibroblast growth factor (bFGF; 2.5 ng/ml), activin A (100 ng/ml), Wnt3a (25 ng/ml) and BMP4 (0.25 ng/ml) for 3 days. On day 4, the EBs were harvested and re-cultured in StemPRO-34® supplemented with bFGF (10 ng/ml), activin A (100 ng/ml), Wnt3a (25 ng/ml) and BMP4 (0.25 ng/ml) (medium B). EBs were harvested at day 6, dissociated to single cells and the cells cultured for 2 days on Matrigel™-coated 12 well plates at a concentration of 4×10^5 cells in media B without Wnt3A and with activin A at a concentration of 50 ng/ml. At day 8, medium B was replaced with hepatic specification media that consisted of Iscove's Modified Dulbecco's Medium (IMDM) supplement with 1% vol/vol B27 supplement (Invitrogen: A11576SA), ascorbic acid, MTG, FGF10 (50 ng/ml) (from day 8 to day 10), bFGF (20 ng/ml) (from day 10 to day 14), and BMP4 (50 ng/ml). Media was changed every 2 days from day 8 to day 14. To promote maturation of HES2-derived hepatic cells, they were cultured in maturation media A for 12 days. Maturation media A consisted of IMDM with 1% vol/vol B27 supplement, ascorbic acid, Glutamine, MTG, Hepatocyte growth factor (HGF) (20 ng/ml), Dexamethasone Dex) (40 ng/ml) and Oncostatin M (20 ng/ml). Aggregates were generated from the population at day 26 of culture. To generate aggregates the cells were dissociated with collagenase and TrypleLE and then cultured in six well ultra-low cluster dishes at a concentration of 6×10^5 cells per well in maturation medium A supplemented with Rho-kinase inhibitor and 0.1% BSA. Aggregates were maintained under these conditions until day 32, with media changes every 3 days. […] Media was changed every 3 days. To generate hepatocyte like cells from H9, H1 and IPS cells, the following changes were made to the hepatic specification media. […] All cytokines were human and purchased from R&D Systems, unless stated otherwise. EB and monolayer cultures were maintained in a 5% CO2, 5% O2, 90% N2 environment. Aggregation cultures were maintained in a 5% CO2 ambient air environment.
(§2) Total RNA was prepared with RNAqueous® Micro Kit (Ambion) and treated with RNase-free DNase (Ambion). 500 ng to 1 μg RNA was reverse transcribed into cDNA using random hexamers and Oligo(dT) with Superscript® III Reverse Transcriptase (Invitrogen). qPCR was performed on a MasterCycler® ep realplex (Eppendorf) using A QuentiFast SYBR Green PCR Kit (Quiagen) as described previously^45. Expression levels were normalized to the housekeeping gene TATA box binding protein (TBP). […] Total human adult and fetal liver RNA was purchased from Clontech. Two primary hepatocyte RNA samples were provided by Dr Stephen C. […] Two primary hepatocyte samples were cultured for two day and were harvested.

Series [2] shares this test system. Nature of the series: Intracellular flow cytometry of AFP+ and ALB+ cells in hepatic aggregates. The settings on record: day 44 aggregates. The series is classed as cell-based, human. The method, then: The proportion of ALB positive cells, on the other hand, was higher in the cAMP-treated population (89.5+/−5.6% vs 82.3+/−3.0%, P<0.05 (mean+/−SD, n=3).
Flow cytometric analyses were performed as described previously^45. For cell surface markers, staining was carried out in PBS with 10% FCS. For intracellular proteins, staining was performed on cells fixed with 4% paraformaldehyde (Electron Microscopy Science, Hatfield, PA, USA) in PBS. Cells were permeabilized with 90% ice-cold methanol for 20 minutes for Sox17 and FoxA2 staining as previously described^45. Albumin and alpha-fetoprotein staining was performed in PBS with 10% FCS and 0.5% saponin (Sigma). Stained cells were analyzed using an LSRII flow cytometer (BD).
A general note: A flow cytometer gives signals particle by particle.

For series [3], the system named is H9- and iPSC (38-2)-derived hepatic aggregates. The method, then:
as §1, §2

The test system of a further series is hepatic aggregates. The series can be described thus: Indocyanine green (ICG) uptake of hepatic aggregates. Format: cell-based, human. The following applies: day 44 aggregates. Here is the method:
The indocyanine green (ICG, Sigma) solution was added to the cells at final concentration of 1 mg/ml ICG in HCM (Lonza). The cells were incubated at 37° C. for 1 hour, washed 3 times with PBS, and then examined with an inverted Microscope (Leica).

For series [4], the system named is UDP-glucuronosyltransferase (UGT). The series can be described thus: Total UGT activity, 4-MU glucuronidation. Format: in vitro ADME, human. The following applies: cAMP-treated aggregates versus primary cultured hepatocytes.
[5] abbreviates: hepatic aggregates, day 32 to 44.
The mark [6] stands for this setting: hepatic aggregates, day 32 to 44, average.

Where “and” joins values, the source holds several entries; their conditions need not be identical. Equal values may be shown once. Read-outs that look alike come from different tables or passages of the source.

With `Nc1ncnc2c1nc(Br)n2[C@@H]1O[C@@H]2COP(=O)(O)O[C@H]2[C@H]1O` [8-Br-cAMP, 8-bromoadenosine-3′5″-cyclic monophosphate], in series [1], the “expression of CYP1A2 and CYP3A4” value was “little increase”; the “increase in expression of CYP1A2” value is listed as 18 fold; the “increase in expression of CYP2B6” value was found to be 4.7 fold; the “increase in expression of CYP3A4” value is on record as 2.5 fold. The “induction of UGT1A1 expression” value in series [1] (HES2-derived aggregates, day 44, relative to non-treated) was found to be 11 fold. The “expression of PGC1-a” value in series [1] (hESC-derived insulin positive pancreatic cells) is recorded as “not induced”. In series [1] (setting [5]), the “expression level of AFP” value is “downregulated”, the “expression level of ALB” value is recorded as “downregulated” and the “expression of PGC1-a” value is on record as 15 fold. In addition, in series [1] (setting [6]), the “expression of G6P” value is 25 fold and the “expression of TAT” value came out at 33 fold. For the same compound, in series [2], the “proportion of AFP+ cells” value was 26% and 34.5+/−12.4%; the “proportion of ALB+ cells” value was 89.5+/−5.6%. In series [3], the “expression of CYP1A2” value turned out to be 100 fold; the “expression of CYP2B6” value came out at 10 fold; the “expression of CYP3A4” value is 16 fold; the “expression of CYP3A4, CYP1A2, CYP2B6 and UGT1A1” value is on record as “as high as those in primary hepatocytes”. In series [3] (H9-derived aggregates), the “expression of UGT1A1” value came out at 16 fold. The “ICG staining of aggregates” value in the series on hepatic aggregates is listed as “almost all treated aggregates stained with ICG”. For the same compound, in series [4], the UGT activity entry is “higher than that of primary cultured hepatocytes”.
